Laboratory results taken from PubChem BioAssay AID2060502 (Molecular Pharmacology Branch, DTP, NCI, 2025).
pIC50: −log10 of the molar value.

Tested on: 885724-159-R-J1-PDC complex spheroid viability
Experiment: Anticancer human tumor 885724-159-R-J1-PDC patient-derived pancreatic adenocarcinoma cell line growth inhibition [GQUAD]
Conditions: for pIC50: curve of first compound; for viability, T/C: stronger effect = lower value; active = viability on the fitted dose curve at most 10% of control; inactive = the rest
Excerpt: DNA G-quadruplex Stabilizer Agents in Combinations in Complex Spheroids
A high-throughput screen of multi-cell type tumor spheroids was designed to identify active combinations of DNA G-quadruplex stabilizer agents and targeted small molecules. Complex spheroids include a stromal component modeled by human endothelial cells (HUVEC) and fibroblasts modeled by human mesenchymal stem cells (MSCs). The concentration ranges selected for each drug and investigational agent were based upon clinically achievable concentrations if the clinical Cmax of the agent was known.
Compounds. The drugs and investigational agents: pidnarulex (CX-5461; NSC782164), APTO-253 (NSC789042), BRACO-19 (NSC847499), peposertib (NSC802822), ceralasertib (NSC780249), elimusertib (NSC800525), camonsertib (NSC841442), AZD-1390 (NSC803789), olaparib (NSC753686), talazoparib (NSC767125), ART-558 (NSC835418), sotorasib (NSC818433), MRTX-1133 (NSC836407), SN-38 (NSC673596), topotecan (NSC609699), etoposide (NSC141540), doxorubicin (NSC123127), gemcitabine (NSC613327), 5-fluorouracil (NSC19893), paclitaxel (NSC125973), vemurafenib (NSC761431), panobinostat (NSC761190), R-306465 (JNJ-16241199; NSC773264), adavosertib (NSC754352), TP-3654 (NSC805149), carboplatin (NSC241240), KSQ-4279 (NSC840948), and staurosporine (NSC755774) were obtained from the National Cancer Institute (NCI) Developmental Therapeutics Program Chemical Repository (34). The FDA-approved anticancer drug set is available from the NCI Developmental Therapeutics Program. […] The stock solutions were prepared in dimethyl sulfoxide (DMSO, Sigma-Aldrich, St. Louis, MO, cat. D2650) at 800-fold the tested concentration and stored at -70 degrees C prior to their use. All drugs and investigational agents were tested over a range starting from a high concentration at or near the clinical Cmax and decreasing in half-log increments. If the clinical Cmax for an agent had not been determined, the highest concentration tested was 10 microM.
2.3 Cell Culture. All cells were maintained in an incubator at 37 degrees C and 5% CO2 with 95% humidity. The PDC lines were cultured according to standard operating procedures established by the NCI PDMR. All PDCs were thawed and cultured in Matrigel-coated flasks prepared with a working solution of 1X Ham's F-12 nutrient mix, without supplementation (Invitrogen, cat. 11765054), 100 U/mL penicillin-streptomycin (Invitrogen, cat. 15140122), and 2.5% Matrigel (Corning Inc., cat. 354248) for the first three passages. The 857933-349-R-J2-PDC line was cultured in 6C/Colon 1B media, which includes advanced DMEM/F-12 (Thermo Fisher Scientific, cat. 12634028), 10 mM HEPES (Thermo Fisher Scientific, cat. 15630080), 1X GlutaMAX supplement (Thermo Fisher Scientific, cat. 35050061), 0.1 mg/mL primocin (InvivoGen, cat. ant-pm-2), 10% defined fetal bovine serum, heat inactivated (HyClone Laboratories Inc., cat. SH30070.03HI), 50% L-WRN conditioned media (ATCC, cat. CRL-3276), 1.25 mM N-Acetyl-L-cysteine (Sigma-Aldrich, cat. A9165), 10 mM nicotinamide (Sigma-Aldrich, cat. N0636), 1X B-27 supplement (Thermo Fisher Scientific, cat. 17504044), 1X N-2 supplement (Thermo Fisher Scientific, cat. 17502048), 10 microM Y-27632 dihydrochloride (Tocris Bioscience, cat. 1254), and 50 ng/mL human EGF recombinant protein (Thermo Fisher Scientific, cat. PHG0311). The 485176-168-R4-J1-PDC line was cultured in Panc media, which includes all 6C/Colon 1B media components plus 100 ng/mL human FGF-10 (Thermo Fisher Scientific, cat. 100-26), 500 nM SB-431542 (Selleckchem, cat. S1067), and gastrin (Tocris, cat. 3006).
[…]

[1] = second compound 0.0316 µM, first compound 0.0316 µM
[2] = second compound 0.0316 µM, first compound 0.316 µM
[3] = second compound 0.1 µM, first compound 0.0316 µM
[4] = second compound 0.1 µM, first compound 0.316 µM
[5] = second compound 0.316 µM, first compound 0.0316 µM
[6] = second compound 0.316 µM, first compound 0.316 µM
[7] = second compound 1 µM, first compound 0.0316 µM
[8] = second compound 1 µM, first compound 0.316 µM
[9] = second compound 3.16 µM, first compound 0.0316 µM
[10] = second compound 3.16 µM, first compound 0.316 µM
[11] = second compound 10 µM, first compound 0.0316 µM
[12] = second compound 10 µM, first compound 0.316 µM
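Note: spheroids exposed to agents for seven days before readout.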
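Throughout, for viability, T/C: percent of vehicle control viability where 100% = DMSO wells.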

COc1ccc([C@@H](O)c2cc(-c3ncnc4cc(N5CCOCC5)ccc34)c(F)cc2Cl)nn1 + Cc1[nH]c2ccc(F)cc2c1-c1nc2c3cccnc3c3ncccc3c2[nH]1
5.27: pIC50 (second compound 0.1 µM)
5.16: pIC50 (second compound 0.0316 µM)
5.28: pIC50 (second compound 0.316 µM)
5.45: pIC50 (second compound 10 µM)
5.48: pIC50 (second compound 1 µM)
inactive: viability, T/C [1] 101% | viability, T/C (second compound 0.0316 µM, first compound 0.1 µM) 110% | viability, T/C [2] 108% | viability, T/C (second compound 0.0316 µM, first compound 1 µM) 94% | viability, T/C (second compound 0.0316 µM, first compound 3.16 µM) 68.5% | viability, T/C (second compound 0.0316 µM, first compound 10 µM) 41.2% | viability, T/C [3] 99% | viability, T/C (second compound 0.1 µM, first compound 0.1 µM) 97% | viability, T/C [4] 90.5% | viability, T/C (second compound 0.1 µM, first compound 1 µM) 82.3% | viability, T/C (second compound 0.1 µM, first compound 3.16 µM) 57.7% | viability, T/C (second compound 0.1 µM, first compound 10 µM) 40.5% | viability, T/C [5] 92% | viability, T/C (second compound 0.316 µM, first compound 0.1 µM) 97.8% | viability, T/C [6] 83.6% | viability, T/C (second compound 0.316 µM, first compound 1 µM) 65.7% | viability, T/C (second compound 0.316 µM, first compound 3.16 µM) 66.5% | viability, T/C (second compound 0.316 µM, first compound 10 µM) 36.2% | viability, T/C [7] 76.1% | viability, T/C (second compound 1 µM, first compound 0.1 µM) 71.1% | viability, T/C [8] 82.8% | viability, T/C (second compound 1 µM, first compound 1 µM) 68.5% | viability, T/C (second compound 1 µM, first compound 3.16 µM) 51% | viability, T/C (second compound 1 µM, first compound 10 µM) 34.3% | viability, T/C [9] 47.5% | viability, T/C (second compound 3.16 µM, first compound 0.1 µM) 46.3% | viability, T/C [10] 51.2% | viability, T/C (second compound 3.16 µM, first compound 1 µM) 39.5% | viability, T/C (second compound 3.16 µM, first compound 3.16 µM) 33.7% | viability, T/C (second compound 3.16 µM, first compound 10 µM) 28.3% | viability, T/C [11] 72.4% | viability, T/C (second compound 10 µM, first compound 0.1 µM) 75.6% | viability, T/C [12] 62.6% | viability, T/C (second compound 10 µM, first compound 1 µM) 63.4% | viability, T/C (second compound 10 µM, first compound 3.16 µM) 52.9% | viability, T/C (second compound 10 µM, first compound 10 µM) 32.8%
> 7.50: pIC50 (second compound 3.16 µM)

Cn1ncnc1[C@H]1c2n[nH]c(=O)c3cc(F)cc(c23)N[C@@H]1c1ccc(F)cc1 + Cc1[nH]c2ccc(F)cc2c1-c1nc2c3cccnc3c3ncccc3c2[nH]1
> 9.00: pIC50 (second compound 3.16 µM)
< 6.50: pIC50 (second compound 0.0316 µM) | pIC50 (second compound 0.1 µM) | pIC50 (second compound 0.316 µM) | pIC50 (second compound 1 µM) | pIC50 (second compound 10 µM)
inactive: viability, T/C (second compound 0.0316 µM, first compound 0.000999 µM) 104% | viability, T/C (second compound 0.0316 µM, first compound 0.00316 µM) 95.2% | viability, T/C (second compound 0.0316 µM, first compound 0.00999 µM) 106% | viability, T/C [1] 80.6% | viability, T/C (second compound 0.0316 µM, first compound 0.0999 µM) 91.9% | viability, T/C [2] 95.8% | viability, T/C (second compound 0.1 µM, first compound 0.000999 µM) 97.5% | viability, T/C (second compound 0.1 µM, first compound 0.00316 µM) 90% | viability, T/C (second compound 0.1 µM, first compound 0.00999 µM) 85.6% | viability, T/C [3] 93.9% | viability, T/C (second compound 0.1 µM, first compound 0.0999 µM) 88.3% | viability, T/C [4] 80.2% | viability, T/C (second compound 0.316 µM, first compound 0.000999 µM) 87.3% | viability, T/C (second compound 0.316 µM, first compound 0.00316 µM) 106% | viability, T/C (second compound 0.316 µM, first compound 0.00999 µM) 92% | viability, T/C [5] 91.3% | viability, T/C (second compound 0.316 µM, first compound 0.0999 µM) 80.8% | viability, T/C [6] 82.2% | viability, T/C (second compound 1 µM, first compound 0.000999 µM) 78% | viability, T/C (second compound 1 µM, first compound 0.00316 µM) 68.4% | viability, T/C (second compound 1 µM, first compound 0.00999 µM) 68.8% | viability, T/C [7] 73.6% | viability, T/C (second compound 1 µM, first compound 0.0999 µM) 72% | viability, T/C [8] 81% | viability, T/C (second compound 3.16 µM, first compound 0.000999 µM) 40.1% | viability, T/C (second compound 3.16 µM, first compound 0.00316 µM) 36.1% | viability, T/C (second compound 3.16 µM, first compound 0.00999 µM) 43.8% | viability, T/C [9] 33.8% | viability, T/C (second compound 3.16 µM, first compound 0.0999 µM) 38% | viability, T/C [10] 42.8% | viability, T/C (second compound 10 µM, first compound 0.000999 µM) 63% | viability, T/C (second compound 10 µM, first compound 0.00316 µM) 78.6% | viability, T/C (second compound 10 µM, first compound 0.00999 µM) 73.6% | viability, T/C [11] 66.8% | viability, T/C (second compound 10 µM, first compound 0.0999 µM) 80.6% | viability, T/C [12] 68.2%
